US20110144353A1, “5-HYDROXY-4-AMINOMETHYL-1-C[…] (CYCLOHEPTYL)--3-ALKO[…] DERIVATIVES, PHARMA[…] SALTS THEREOF AND A METHOD FOR THE PRODUCTION THEREOF” (OBSCHESTVO S ORGANICHENNOY OTVETSTVENNOSTJU <<BINATEKH>>, priority 2008, published 2011)
≈ marks a conversion by molar mass, not a printed value.

Key:
[1] = test system: influenza A/Aichi/2/69 (H3N2) virus; assay: Murine influenza pneumonia model; assay type: in vivo, mice; conditions: for Mean Life Span / Mortality / Survival rate: mice infected with 10 LD50; for Mortality reduction: versus virus control
Procedure: Determination of the efficacy of the compounds in the murine influenza pneumonia model.
The experiments were carried out on 60 white mice weighing 12-15 g. The animals were infected intranasally under light ether anesthesia with the influenza A/Aichi/2/69 (H3N2) virus (10 LD50). The compounds to be tested were administered per os in a dose of 60 or 15 mg/kg/day. The treatment was carried out according to the following scheme: 24 hours and 1 hour before infection, and then 2 times a day (at 8 o'clock in the morning and 8 o'clock in the evening) for 5 days. The chemotherapeutic activity of Arbidol and compound A in the murine influenza pneumonia model was assessed according to two criteria: the index of protection against fatal viral infection and the increase in mean life span of the treated animals as compared with the control group. The mean life span of the mice was calculated according to the following formula: Σf(d−1)/n, where f is the number of mice dying on day d (the surviving mice were also included in f; d in this case=16); n is the number of mice in the group.

[2] = test system: Influenza A/New Caledonia/20/99 (H1N1) Virus; assay: microbe, parasite or virus in culture; assay type: cell-based; conditions: for MIC50: Influenza A virus, H1N1, MDCK cells, concentration decreasing OD by 50%, solvent alcohol

| Compound | Efficacy in animal experiments ([1]; 15 mg/kg/day) | Mean Life Span ([1]; 15 mg/kg/day per os) | Mortality ([1]; 15 mg/kg/day per os) | Survival rate ([1]; 15 mg/kg/day per os) | Mortality reduction ([1]; 15 mg/kg/day per os) | Activity in animal experiments compared with Arbidol ([1]; summary of Table 2) | Activity at 10 μg/mL [2] | MIC50 [2] | Activity in in vitro experiments compared with Arbidol ([2]; summary of Table 1) | Mean Life Span ([1]; 60 mg/kg/day per os) | Mortality ([1]; 60 mg/kg/day per os) | Survival rate ([1]; 60 mg/kg/day per os) | Mortality reduction ([1]; 60 mg/kg/day per os) |
| --- | --- | --- | --- | --- | --- | --- | --- | --- | --- | --- | --- | --- | --- |
| CCOC(=O)c1c(C)n(C2CCCCC2)c2ccc(O)c(CN(C)C)c12 [Compound A, 5-hydroxy-4-dimethylaminomethyl-2-methyl-1-cyclohexyl-3-ethoxycarbonyl indole] | equal to the efficacy of Arbidol at a dose 4 times higher | 11.5 days | 40% | 5/8 | 50% | significantly more active than Arbidol | 96.5% | 5.4 µg/mL (≈ 15.1 µM) | somewhat more active than Arbidol |  |  |  |  |
| CCOC(=O)c1c(CSc2ccccc2)n(C)c2cc(Br)c(O)c(CN(C)C)c12 [Arbidol, 1-methyl-2-phenylthiomethyl-3-carbethoxy-4-dimethylaminomethyl-5-oxy-6-bromindol] |  | 7.3 days | 70% | 3/10 | 20% |  | 89.5% | 6 µg/mL (≈ 12.6 µM) |  | 10.8 days | 40% | 6/10 | 50% |
